Key:
Hexokinase-4 = biological target: T1, Hexokinase-4 (Homo sapiens, UniProt P35557); experiment: Inhibition of fluorescein-labeled human GK interaction with biotin-labeled human GKRP compound incubated for 20 mins prior to addition of fluorescein-labeled GK measured after 2 to 4 hrs by AlphaScreen assay
T1 sequence (P35557 whole entry): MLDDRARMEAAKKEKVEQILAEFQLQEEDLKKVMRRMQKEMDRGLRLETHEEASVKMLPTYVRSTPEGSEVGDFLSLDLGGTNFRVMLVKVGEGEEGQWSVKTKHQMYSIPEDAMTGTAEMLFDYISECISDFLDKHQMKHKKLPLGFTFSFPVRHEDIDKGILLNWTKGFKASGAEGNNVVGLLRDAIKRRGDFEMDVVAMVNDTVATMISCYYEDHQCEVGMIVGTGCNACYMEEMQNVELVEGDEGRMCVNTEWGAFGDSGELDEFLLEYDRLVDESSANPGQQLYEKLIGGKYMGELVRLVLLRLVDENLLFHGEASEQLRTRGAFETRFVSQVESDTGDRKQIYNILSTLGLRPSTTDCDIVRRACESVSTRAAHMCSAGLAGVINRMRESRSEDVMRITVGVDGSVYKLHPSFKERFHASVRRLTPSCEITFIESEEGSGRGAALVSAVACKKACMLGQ

[1] = Intrinsic clearance in human liver microsomes at 1 uM after 30 mins in presence of NADPH; type: ADME; conditions: read-out: CLH
[2] = Intrinsic clearance in rat liver microsomes at 1 uM after 30 mins in presence of NADPH; type: ADME; conditions: read-out: CLH
[3] = Clearance in Sprague-Dawley rat at 2 mg/kg, iv; type: ADME, organism-based; parameters: dose 2 mg/kg, route intravenous; conditions: in vivo
[4] = Volume of distribution at steady state in Sprague-Dawley rat at 2 mg/kg, iv; type: ADME, organism-based; parameters: dose 2 mg/kg, route intravenous; conditions: in vivo, read-out: Vdss
[5] = Mean residence time in Sprague-Dawley rat at 2 mg/kg, iv; type: ADME, organism-based; parameters: dose 2 mg/kg, route intravenous; conditions: in vivo
[6] = Oral bioavailability in Sprague-Dawley rat at 10 mg/kg; type: ADME, organism-based; conditions: in vivo
[7] = AUC in Sprague-Dawley rat at 10 mg/kg, po; type: ADME, organism-based; parameters: dose 10 mg/kg, route oral; conditions: plasma
[8] = Fraction unbound in Sprague-Dawley rat plasma; type: ADME, cell-free
Cytochrome P450 3A4 = Cytochrome P450 3A4 (Homo sapiens, UniProt P08684); experiment: Inhibition of CYP3A4 (unknown origin); type: ADME
Chain of Cytochrome P450 3A4 (P08684 whole entry): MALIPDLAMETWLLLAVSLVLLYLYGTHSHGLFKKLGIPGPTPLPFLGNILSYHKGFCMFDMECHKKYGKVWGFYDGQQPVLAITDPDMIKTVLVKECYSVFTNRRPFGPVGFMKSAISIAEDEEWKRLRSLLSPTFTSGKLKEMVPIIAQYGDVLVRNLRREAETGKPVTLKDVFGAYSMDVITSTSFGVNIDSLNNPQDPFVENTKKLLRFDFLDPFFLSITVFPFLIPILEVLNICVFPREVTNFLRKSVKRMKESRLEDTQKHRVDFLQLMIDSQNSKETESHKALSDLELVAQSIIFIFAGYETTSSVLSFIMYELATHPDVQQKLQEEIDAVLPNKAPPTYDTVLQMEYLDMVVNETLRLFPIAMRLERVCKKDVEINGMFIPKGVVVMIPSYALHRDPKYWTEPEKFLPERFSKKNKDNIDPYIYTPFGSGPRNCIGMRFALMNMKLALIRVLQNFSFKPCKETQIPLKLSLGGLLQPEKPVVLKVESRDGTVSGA

Cytochrome P450 2D6 = Cytochrome P450 2D6 (Homo sapiens, UniProt P10635); experiment: Inhibition of CYP2D6 (unknown origin); type: ADME
Chain of Cytochrome P450 2D6 (P10635 whole entry): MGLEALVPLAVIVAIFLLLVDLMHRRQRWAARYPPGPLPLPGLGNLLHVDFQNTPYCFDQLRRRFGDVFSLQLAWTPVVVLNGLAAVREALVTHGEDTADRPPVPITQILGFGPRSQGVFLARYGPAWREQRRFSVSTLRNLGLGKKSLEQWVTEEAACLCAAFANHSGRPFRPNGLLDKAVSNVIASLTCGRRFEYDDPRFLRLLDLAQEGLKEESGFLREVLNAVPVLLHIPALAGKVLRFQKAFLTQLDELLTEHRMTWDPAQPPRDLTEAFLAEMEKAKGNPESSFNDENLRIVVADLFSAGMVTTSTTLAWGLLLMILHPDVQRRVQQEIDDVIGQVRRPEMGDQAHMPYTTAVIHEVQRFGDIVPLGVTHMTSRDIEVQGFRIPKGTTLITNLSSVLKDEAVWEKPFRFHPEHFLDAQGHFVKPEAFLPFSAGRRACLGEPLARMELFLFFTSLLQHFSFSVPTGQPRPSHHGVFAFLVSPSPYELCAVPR

Mus musculus = experiment: Antidiabetic activity in insulin-resistant db/db mouse assessed as reduction of fed blood glucose level at 10 to 100 mg/kg, po measured at 6 hrs relative to vehicle-treated control; type: functional; parameters: scale not given: the % may be the effect or the level left; conditions: dose mg/kg 10-100

IC50 (Hexokinase-4)	microsomal CLint at 1 µM [1]	microsomal CLint at 1 µM [2]	clearance [3]	Vd [4]	MRT [5]	bioavailability [6]	AUC [7]	fraction unbound [8]	IC50 (Cytochrome P450 3A4)	IC50 (Cytochrome P450 2D6)	Compound	Activity (Mus musculus)
0.001 µM	19 µL/min/mg	44 µL/min/mg	33.3 mL/min/kg	2.57 L/kg	1.34 h	30%	2.8 µM·h	0.011	27 µM	18 µM	Cn1cc(-c2cc(C(O)(C(F)(F)F)C(F)(F)F)cnc2N2CCN(S(=O)(=O)c3ccc(N)nc3)CC2)cn1	
0.005 µM	17 µL/min/mg	20 µL/min/mg	25 mL/min/kg	3.36 L/kg	2.18 h	43%	4.74 µM·h	0.021	27 µM	27 µM	Nc1ccc(S(=O)(=O)N2CCN(c3ncc(C(O)(C(F)(F)F)C(F)(F)F)cc3-c3cccnc3)CC2)cn1	25%

From ChEMBL document CHEMBL3352455, “Small molecule disruptors of the glucokinase-glucokinase regulatory protein interaction: 4. Exploration of a novel binding pocket” (J Med Chem, 2014)
